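48-hour exposure; five concentrations; linearly interpolated endpoints. GI50 is the concentration that inhibits growth by half. TGI denotes the concentration required for complete inhibition of growth.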
Columns and labels:
Assay in all cases: DTP human tumour cell line panel, 48 h
HCT-116 colon = system: HCT-116 colon
HS 578T breast = system: HS 578T breast
EKVX NSCLC = system: EKVX NSCLC
SK-MEL-5 melanoma = system: SK-MEL-5 melanoma
RPMI-8226 leukemia = system: RPMI-8226 leukemia
NCI-H522 lung = system: NCI-H522 lung
NCI/ADR-RES ovarian = system: NCI/ADR-RES ovarian
SK-OV-3 ovarian = system: SK-OV-3 ovarian
HCT-15 colon = system: HCT-15 colon
SF-295 CNS = system: SF-295 CNS
RXF 393 renal = system: RXF 393 renal
CAKI-1 renal = system: CAKI-1 renal
M14 melanoma = system: M14 melanoma
KM12 colon = system: KM12 colon
T-47D breast = system: T-47D breast
MCF7 breast = system: MCF7 breast
HCC-2998 colon = system: HCC-2998 colon
SW-620 colon = system: SW-620 colon
UACC-257 melanoma = system: UACC-257 melanoma
LOX IMVI melanoma = system: LOX IMVI melanoma
DU-145 prostate = system: DU-145 prostate
CCRF-CEM leukemia = system: CCRF-CEM leukemia
SF-268 CNS = system: SF-268 CNS
NCI-H23 lung = system: NCI-H23 lung
BT-549 breast = system: BT-549 breast
MALME-3M melanoma = system: MALME-3M melanoma
HT29 colon = system: HT29 colon
SK-MEL-2 melanoma = system: SK-MEL-2 melanoma
OVCAR-5 ovarian = system: OVCAR-5 ovarian
TK-10 renal = system: TK-10 renal
SF-539 CNS = system: SF-539 CNS
HOP-92 NSCLC = system: HOP-92 NSCLC
UO-31 renal = system: UO-31 renal
U251 CNS = system: U251 CNS
786-0 renal = system: 786-0 renal
IGROV1 ovarian = system: IGROV1 ovarian
A498 renal = system: A498 renal
OVCAR-4 ovarian = system: OVCAR-4 ovarian
NCI-H226 lung = system: NCI-H226 lung
OVCAR-3 ovarian = system: OVCAR-3 ovarian
MOLT-4 leukemia = system: MOLT-4 leukemia
UACC-62 melanoma = system: UACC-62 melanoma
HOP-62 NSCLC = system: HOP-62 NSCLC
OVCAR-8 ovarian = system: OVCAR-8 ovarian
A549 NSCLC = system: A549 NSCLC
COLO 205 colon = system: COLO 205 colon
MDA-MB-231 breast = system: MDA-MB-231 breast
SNB-19 CNS = system: SNB-19 CNS
ACHN renal = system: ACHN renal
K-562 leukemia = system: K-562 leukemia
PC-3 prostate = system: PC-3 prostate
SN12C renal = system: SN12C renal
SK-MEL-28 melanoma = system: SK-MEL-28 melanoma
NCI-H460 lung = system: NCI-H460 lung
MDA-MB-435 = system: MDA-MB-435

Compound C=C1C(=O)O[C@H]2[C@H]1CC/C(COC(=O)NCc1ccc(Cn3c(=O)sn(-c4ccccc4)c3=O)cc1)=C\CC[C@@]1(C)O[C@@H]21 has a GI50 (HCT-116 colon) of 1520 nM, a TGI (HCT-116 colon) of 2950 nM and a GI50 (HS 578T breast) of 4.14 µM. It also gave a TGI (HS 578T breast) of 33.1 µM, a GI50 (EKVX NSCLC) of 1850 nM and a TGI (EKVX NSCLC) of 4.38 µM. For the same compound, the GI50 (SK-MEL-5 melanoma) was 3.24 µM, the TGI (SK-MEL-5 melanoma) was 11.5 µM and the GI50 (RPMI-8226 leukemia) was 2030 nM. For the same compound, the TGI (RPMI-8226 leukemia) was 6.26 µM, the GI50 (NCI-H522 lung) was 1740 nM and the TGI (NCI-H522 lung) was 3.48 µM. The GI50 (NCI/ADR-RES ovarian) was 19.1 µM, the TGI (NCI/ADR-RES ovarian) was 63.3 µM and the GI50 (SK-OV-3 ovarian) was 14.1 µM. The TGI (SK-OV-3 ovarian) was 27.4 µM, the GI50 (HCT-15 colon) was 1940 nM and the TGI (HCT-15 colon) was 3.88 µM. The GI50 (SF-295 CNS) was 8.52 µM, the TGI (SF-295 CNS) was 21.8 µM and the GI50 (RXF 393 renal) was 1750 nM. For the same compound, the TGI (RXF 393 renal) was 3.4 µM, the GI50 (CAKI-1 renal) was 2490 nM and the TGI (CAKI-1 renal) was 6.1 µM. It also gave a GI50 (M14 melanoma) of 1800 nM, a TGI (M14 melanoma) of 3.58 µM and a GI50 (KM12 colon) of 3.46 µM. The TGI (KM12 colon) was 12.7 µM, the GI50 (T-47D breast) was 1980 nM and the TGI (T-47D breast) was 4.66 µM. For the same compound, the GI50 (MCF7 breast) was 1590 nM, the TGI (MCF7 breast) was 3.55 µM and the GI50 (HCC-2998 colon) was 1990 nM. For the same compound, the TGI (HCC-2998 colon) was 3.82 µM, the GI50 (SW-620 colon) was 1910 nM and the TGI (SW-620 colon) was 3.78 µM. For the same compound, the GI50 (UACC-257 melanoma) was 1860 nM, the TGI (UACC-257 melanoma) was 4.14 µM and the GI50 (LOX IMVI melanoma) was 1620 nM. The TGI (LOX IMVI melanoma) was 3.07 µM, the GI50 (DU-145 prostate) was 1710 nM and the TGI (DU-145 prostate) was 3.12 µM. The GI50 (CCRF-CEM leukemia) was 833 nM, the TGI (CCRF-CEM leukemia) was greater than 100 µM and the GI50 (SF-268 CNS) was 2210 nM. It also gave a TGI (SF-268 CNS) of 5 µM, a GI50 (NCI-H23 lung) of 3.55 µM and a TGI (NCI-H23 lung) of 12.6 µM. For the same compound, the GI50 (BT-549 breast) was 2140 nM, the TGI (BT-549 breast) was 5 µM and the GI50 (MALME-3M melanoma) was 2090 nM. For the same compound, the TGI (MALME-3M melanoma) was 4.06 µM, the GI50 (HT29 colon) was 2150 nM and the TGI (HT29 colon) was 4.14 µM. It also gave a GI50 (SK-MEL-2 melanoma) of 2390 nM, a TGI (SK-MEL-2 melanoma) of 6.34 µM and a GI50 (OVCAR-5 ovarian) of 2510 nM. For the same compound, the TGI (OVCAR-5 ovarian) was 6.73 µM, the GI50 (TK-10 renal) was 2210 nM and the TGI (TK-10 renal) was 4.05 µM. The GI50 (SF-539 CNS) was 1570 nM, the TGI (SF-539 CNS) was 3.06 µM and the GI50 (HOP-92 NSCLC) was 1820 nM. For the same compound, the TGI (HOP-92 NSCLC) was 3.44 µM, the GI50 (UO-31 renal) was 1680 nM and the TGI (UO-31 renal) was 3.16 µM. For the same compound, the GI50 (U251 CNS) was 2370 nM, the TGI (U251 CNS) was 5.28 µM and the GI50 (786-0 renal) was 1810 nM. The TGI (786-0 renal) was 3.37 µM, the GI50 (IGROV1 ovarian) was 2090 nM and the TGI (IGROV1 ovarian) was 4.2 µM. It also gave a GI50 (A498 renal) of 3.91 µM, a TGI (A498 renal) of 14.5 µM and a GI50 (OVCAR-4 ovarian) of 2740 nM. The TGI (OVCAR-4 ovarian) was 8.19 µM, the GI50 (NCI-H226 lung) was 14.8 µM and the TGI (NCI-H226 lung) was 35.2 µM. For the same compound, the GI50 (OVCAR-3 ovarian) was 1680 nM, the TGI (OVCAR-3 ovarian) was 3.12 µM and the GI50 (MOLT-4 leukemia) was 2200 nM. The TGI (MOLT-4 leukemia) was 7.09 µM, the GI50 (UACC-62 melanoma) was 2040 nM and the TGI (UACC-62 melanoma) was 4.15 µM. The GI50 (HOP-62 NSCLC) was 12.4 µM, the TGI (HOP-62 NSCLC) was 26.3 µM and the GI50 (OVCAR-8 ovarian) was 2830 nM. It also gave a TGI (OVCAR-8 ovarian) of 8.55 µM, a GI50 (A549 NSCLC) of 6.22 µM and a TGI (A549 NSCLC) of 20.6 µM. For the same compound, the GI50 (COLO 205 colon) was 1770 nM, the TGI (COLO 205 colon) was 3.44 µM and the GI50 (MDA-MB-231 breast) was 1710 nM. It also gave a TGI (MDA-MB-231 breast) of 3.52 µM, a GI50 (SNB-19 CNS) of 4.26 µM and a TGI (SNB-19 CNS) of 16.1 µM. The GI50 (ACHN renal) was 1640 nM, the TGI (ACHN renal) was 3.14 µM and the GI50 (K-562 leukemia) was 1800 nM. For the same compound, the TGI (K-562 leukemia) was greater than 100 µM, the GI50 (PC-3 prostate) was 2360 nM and the TGI (PC-3 prostate) was 5.63 µM. It also gave a GI50 (SN12C renal) of 2140 nM, a TGI (SN12C renal) of 5.1 µM and a GI50 (SK-MEL-28 melanoma) of 1700 nM. The TGI (SK-MEL-28 melanoma) was 3.41 µM, the GI50 (NCI-H460 lung) was 3.67 µM and the TGI (NCI-H460 lung) was 12.4 µM. It also gave a GI50 (MDA-MB-435) of 2070 nM and a TGI (MDA-MB-435) of 4.2 µM.

Reference: PubChem BioAssay (NCI)
